From PubChem BioAssay AID1259411 (Chemical Carcinogenesis Research Information System (CCRIS), 2018) come the findings set out here.

Calls of active or inactive are those of the source. How the calls were made is not given here.

In this data set the test system is rodent carcinogenicity bioassays, tumor incidence. The experiment in a line: CCRIS carcinogenicity studies. Summed up: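 Archive of carcinogenicity, mutagenicity, tumor promotion and tumor inhibition results drawn from journals, NCI reports and other sources, expert-reviewed; covers 1985-2011 and is no longer updated.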

Consider `N#[N+]c1ccccc1`, for which the carcinogen call is “active; positive” (Species: MOUSE, Strain/Sex: SWISS/FEMALE, Route: GAVAGE, Dose: 0, 100 MG/KG BW 1X/WK FOR 52 WK (STUDY DURATION: 140 WK), Tumor Site: Type of Lesion: LUNG: TUMOR); “active; positive” (Species: MOUSE, Strain/Sex: SWISS/FEMALE, Route: SUBCUTANEOUS, Dose: 0, 10 UG/G BW IN 0.01 ML OF 0.9% SALINE 1/WK FOR 26 WK (STUDY DURATION: 140WK), Tumor Site: Type of Lesion: SUBCUTANEOUS TISSUE: TUMOR); “inactive; negative” (Species: MOUSE, Strain/Sex: SWISS/FEMALE, Route: SUBCUTANEOUS, Dose: 0, 25 MG/KG BW 1X/WK FOR 10 WK (STUDY DURATION: 130 WK)); “active; positive” (Species: MOUSE, Strain/Sex: SWISS/MALE, Route: GAVAGE, Dose: 0, 100 MG/KG BW 1X/WK FOR 52 WK (STUDY DURATION: 130 WK), Tumor Site: Type of Lesion: LUNG: TUMOR); “active; positive” (Species: MOUSE, Strain/Sex: SWISS/MALE, Route: SUBCUTANEOUS, Dose: 0, 10 UG/G BW IN 0.01 ML OF 0.9% SALINE 1/WK FOR 26 WK (STUDY DURATION: 140 WK), Tumor Site: Type of Lesion: SUBCUTANEOUS TISSUE: TUMOR); “inactive; negative” (Species: MOUSE, Strain/Sex: SWISS/MALE, Route: SUBCUTANEOUS, Dose: 0, 25 MG/KG BW 1X/WK FOR 10 WK (STUDY DURATION: 120 WK)).
On to `O=S(=O)(O)c1ccc2c(N=Nc3ccc(S(=O)(=O)O)c4ccccc34)c(O)c(S(=O)(=O)O)cc2c1`, for which the carcinogen call (Species: MOUSE, Strain/Sex: SWISS-WEBSTER/FEMALE, Route: DERMAL, Dose: 0, 1% IN 0.1 ML DISTILLED WATER 1/WK FOR 19.5 MO (STUDY DURATION: 19.5 MO)) is “inactive; negative”; the carcinogen call (Species: MOUSE, Strain/Sex: SWISS-WEBSTER/MALE, Route: DERMAL, Dose: 0, 1% IN 0.1 ML DISTILLED WATER 1/WK FOR 19.5 MO (STUDY DURATION: 19.5 MO)) is “inactive; negative”; the carcinogen call (Species: RAT, Strain/Sex: WISTAR/FEMALE, Route: ORAL, Dose: 0, 50, 250, 1250 MG/KG IN THE DIET TO PUPS OF PARENTS EXPOSED TO THE SAME DOSE LEVELS FOR 60 D PRIOR TO MATING AND CONTI, Dose: 0, 50, 250, 1250 MG/KG IN THE DIET TO PUPS OF PARENTS EXPOSED TO THE SAME DOSE LEVELS FOR 60 D PRIOR TO MATING AND CONTI) was “inactive; negative”; the carcinogen call (Species: RAT, Strain/Sex: WISTAR/MALE, Route: ORAL, Dose: 0, 50, 250, 1250 MG/KG IN THE DIET TO PUPS OF PARENTS EXPOSED TO THE SAME DOSE LEVELS FOR 60 D PRIOR TO MATING AND CONTI, Dose: 0, 50, 250, 1250 MG/KG IN THE DIET TO PUPS OF PARENTS EXPOSED TO THE SAME DOSE LEVELS FOR 60 D PRIOR TO MATING AND CONTI) was “inactive; negative”.
In the case of `CN(C)CCN(Cc1cccs1)c1ccccn1`, the carcinogen call by setting is: (Species: RAT, Strain/Sex: F344/FEMALE, Route: ORAL, Dose: 0, 1 G/L IN DEIONIZED DRINKING WATER FOR 12 WK WITH NO TREATMENT DURING WK 5 AND 9 (STUDY DURATION: 121 WK)) “inactive; negative”; (Species: RAT, Strain/Sex: F344/FEMALE, Route: ORAL, Dose: 0, 125, 250 MG/KG IN DIET (TOTAL DOSE: 0; 7; 15 MG/KG) FOR 110 WK (STUDY DURATION: 133 WK), Dose: 0, 125, 250 MG/KG IN DIET (TOTAL DOSE: 0; 7; 15 MG/KG) FOR 110 WK (STUDY DURATION: 133 WK), Tumor Site: Type of Lesion: LIVER: CARCINOMA) “active; positive”; (Species: RAT, Strain/Sex: F344/MALE,FEMALE, Route: ORAL, Dose: 1000 PPM IN DIET FOR 64 WK (INITIAL DOSES AT 2000 PPM), Tumor Site: Type of Lesion: LIVER: HEPATOCELLULAR CARCINOMA, CHOLANGIOCARCINOMA) “active; positive”; (Species: RAT, Strain/Sex: F344/MALE, Route: ORAL, Dose: 0, 125, 250 MG/KG IN DIET (TOTAL DOSE: 0; 7; 14 G/KG) FOR 110 WK (STUDY DURATION: 133 WK), Dose: 0, 125, 250 MG/KG IN DIET (TOTAL DOSE: 0; 7; 14 G/KG) FOR 110 WK (STUDY DURATION: 133 WK), Tumor Site: Type of Lesion: LIVER: CARCINOMA) “active; positive”; (Species: RAT, Strain/Sex: SPRAGUE-DAWLEY/FEMALE, Route: ORAL, Dose: 0, 500, 1000 PPM IN DRINKING WATER 5D/WK FOR LIFE (STUDY DURATION: 576-709 D), Dose: 0, 500, 1000 PPM IN DRINKING WATER 5D/WK FOR LIFE (STUDY DURATION: 576-709 D), Tumor Site: Type of Lesion: LIVER: HEPATOCELLULAR CARCINOMA OR SARCOMA) “active; positive”; (Species: RAT, Strain/Sex: SPRAGUE-DAWLEY/MALE, Route: ORAL, Dose: 0, 500, 1000 PPM IN DRINKING WATER 5D/WK FOR LIFE (STUDY DURATION: 585-760 D), Dose: 0, 500, 1000 PPM IN DRINKING WATER 5D/WK FOR LIFE (STUDY DURATION: 585-760 D), Tumor Site: Type of Lesion: LIVER: HEPATOCELLULAR CARCINOMA) “active; positive”.
As to `CCCCNC(=O)n1c(NC(=O)OC)nc2ccccc21`, the carcinogen call by setting is: (Species: Mouse, Strain/Sex: CD-1/Female (80/group), Route: Oral, Dose: 0, 500, 1500, 7500 for 37 wk reduced to 5000 ppm in feed for 2 yr, Dose: 0, 500, 1500, 7500 for 37 wk reduced to 5000 ppm in feed for 2 yr, Tumor Site: Type of Lesion: Liver: Hepatocellular adenoma (2/64, 2/60, 7/73, 7/68), Hepatocellular carcinoma (2/64, 7/60, 6/73, 14/68), Combined (4/, Tumor Site: Type of Lesion: Liver: Hepatocellular adenoma (2/64, 2/60, 7/73, 7/68), Hepatocellular carcinoma (2/64, 7/60, 6/73, 14/68), Combined (4/) “active; positive; purity 99%; additional study details in california epa department of p”; (Species: Mouse, Strain/Sex: CD-1/Male (80/group), Route: Oral, Dose: 0, 500, 1500, 7500 for 37 wk reduced to 5000 ppm in feed for 2 yr, Dose: 0, 500, 1500, 7500 for 37 wk reduced to 5000 ppm in feed for 2 yr, Tumor Site: Type of Lesion: Liver: Hepatocellular adenoma (9/60, 9/75, 11/73, 10/76), Hepatocellular carcinoma (16/60, 26/75, 41/73, 17/76), Combine, Tumor Site: Type of Lesion: Liver: Hepatocellular adenoma (9/60, 9/75, 11/73, 10/76), Hepatocellular carcinoma (16/60, 26/75, 41/73, 17/76), Combine) “active; positive; purity 99%; additional study details in california epa department of p”.
For `O=P(=O)O`, the carcinogen call is “inactive; negative” (Species: RAT, Strain/Sex: F344/FEMALE, Route: INHALATION, Dose: 0, 1, 5, 25 MG/M3 6 HR/D 5 D/WK FOR 24 MO (STUDY DURATION: 24 MO), Dose: 0, 1, 5, 25 MG/M3 6 HR/D 5 D/WK FOR 24 MO (STUDY DURATION: 24 MO)) and “inactive; negative” (Species: RAT, Strain/Sex: F344/MALE, Route: INHALATION, Dose: 0, 1, 5, 25 MG/M3 6 HR/D 5 D/WK FOR 24 MO (STUDY DURATION: 24 MO), Dose: 0, 1, 5, 25 MG/M3 6 HR/D 5 D/WK FOR 24 MO (STUDY DURATION: 24 MO)).
Consider `C=CCN(N=O)C(N)=O`, for which the carcinogen call runs as follows: (Species: RAT, Strain/Sex: F344/FEMALE, Route: GAVAGE, Dose: 0, 13 MG/ML (TOTAL DOSE 0; 1.2 MMOL) IN 2 ML ETHYL ACETATE AND CORN OIL (1:2) 2/WK FOR 30 WK (STUDY DURATION: LIFETIME), Dose: 0, 13 MG/ML (TOTAL DOSE 0; 1.2 MMOL) IN 2 ML ETHYL ACETATE AND CORN OIL (1:2) 2/WK FOR 30 WK (STUDY DURATION: LIFETIME), Tumor Site: Type of Lesion: FORESTOMACH: SQUAMOUS CELL CARCINOMA, MAMMARY GLAND: TUMOR) “active; positive”; (Species: RAT, Strain/Sex: F344/FEMALE, Route: GAVAGE, Dose: 0, 13 MG/ML IN 0.2 ML ETHYL ACETATE AND CORN OIL 2/WK FOR 30 WK (STUDY DURATION: LIFESPAN), Tumor Site: Type of Lesion: FORESTOMACH: TUMOR, MAMMARY GLAND: TUMOR) “active; positive”; (Species: RAT, Strain/Sex: F344/MALE, Route: GAVAGE, Dose: 0, 13 MG/ML (TOTAL DOSE 0; 1.2 MMOL) IN 2 ML ETHYL ACETATE AND CORN OIL (1:2) 2/WK FOR 30 WK (STUDY DURATION: LIFETIME), Dose: 0, 13 MG/ML (TOTAL DOSE 0; 1.2 MMOL) IN 2 ML ETHYL ACETATE AND CORN OIL (1:2) 2/WK FOR 30 WK (STUDY DURATION: LIFETIME), Tumor Site: Type of Lesion: FORESTOMACH: SQUAMOUS CELL CARCINOMA, LUNG: TUMOR, COLON: TUMOR, ZYMBAL GLAND: TUMOR, Tumor Site: Type of Lesion: FORESTOMACH: SQUAMOUS CELL CARCINOMA, LUNG: TUMOR, COLON: TUMOR, ZYMBAL GLAND: TUMOR) “active; positive”; (Species: RAT, Strain/Sex: F344/MALE, Route: GAVAGE, Dose: 0, 13 MG/ML IN 0.2 ML ETHYL ACETATE AND CORN OIL 2/WK FOR 30 WK (STUDY DURATION: LIFESPAN), Tumor Site: Type of Lesion: FORESTOMACH: TUMOR, LUNG: COLON: TUMOR, ZYMBAL GLAND: TUMOR, Tumor Site: Type of Lesion: FORESTOMACH: TUMOR, LUNG: COLON: TUMOR, ZYMBAL GLAND: TUMOR) “active; positive”.
